Experimental data as given in PubChem BioAssay AID1996.
≈ marks a conversion by molar mass, not a printed value.

settings: buffer; pH 7.4; 200.0 µM

| Compound | solubility kinetic |
| --- | --- |
| O=C(Nc1nccs1)c1c(O)c2c([nH]c1=O)CCCC2 | 0.9 µg/mL (≈ 3.09 µM) |
| COc1ccccc1NC(=O)C1CC(C)OC1=O (centres undefined) | > 37.4 µg/mL |
| O=S1(=O)CCC(NS(=O)(=O)c2ccc3ccccc3c2)C1 (centres undefined) | > 48.8 µg/mL |
| CN(C)/C=C/C(=O)c1ccc(Br)s1 | > 39 µg/mL |
| O=C(C1CC1)N1CCN(Cc2ccccc2)CC1 | 33.5 µg/mL (≈ 137 µM) |
| Cc1cc([N+](=O)[O-])ccc1NC(=O)c1csc(C)c1C | 1.1 µg/mL (≈ 3.79 µM) |
| O=C(COc1ccc(Cl)cc1)OCC(=O)N1CCOCC1 | > 47.1 µg/mL |
| Cc1ccc(OCCN2CCCC2)cc1.O=C(O)C(=O)O | > 44.3 µg/mL |
| CCOC(=O)Cn1nc(C)cc1NC(=O)c1ccncc1 | > 43.2 µg/mL |
| CC(=O)c1cccc(S(=O)(=O)Nc2ccccc2N2CCOCC2)c1 | > 54.1 µg/mL |
| CCOc1ccc(Br)cc1S(=O)(=O)Nc1ccc(S(=O)(=O)Nc2cc(C)on2)cc1 | 9.3 µg/mL (≈ 18 µM) |
| O=C(C(Cl)c1ccccc1)N1CCCC1 (centres undefined) | 33.1 µg/mL (≈ 148 µM) |
| CCOC(=O)c1ccc(N)cc1 | > 24.8 µg/mL |
| COc1ccccc1C(=O)OCc1cc(=O)n2ccsc2n1 | > 47.4 µg/mL |
| O=c1c2ccccc2n(CC(O)CN2CCCCC2)c2ccccc12 (centres undefined) | > 50.5 µg/mL |
| NC(=O)c1cc([N+](=O)[O-])ccc1N1CCN(Cc2ccccc2)CC1 | 23 µg/mL (≈ 67.6 µM) |
| C=CCn1c(=S)[nH]c2sc3c(c2c1=O)CCCC3 | 14.7 µg/mL (≈ 52.8 µM) |
| O=C(CSc1nnc2ccccn12)NC(=O)c1ccccc1 | > 46.9 µg/mL |
| CC1CCc2cccc3c(O)cc(=O)n1c23 (centres undefined) | > 32.3 µg/mL |
| Cc1ccc(NC(=O)CSc2ncccn2)cc1F | > 41.6 µg/mL |
| O=C(CN1C(=O)c2ccccc2C1=O)NC1CCC(O)CC1 (centres undefined) | > 45.3 µg/mL |
| COc1ccc(NC(=O)CN(C)C(=O)c2ccc3ccccc3n2)cc1 | > 52.4 µg/mL |
| COc1ccc(CCC(C)NCc2cc(OC)cc(OC)c2)cc1 (centres undefined) | 38.7 µg/mL (≈ 117 µM) |
| CC1CCCCN1C(=S)NC(=O)c1cccs1 (centres undefined) | > 40.3 µg/mL |
| O=C(O)c1ccc(CN2C(=O)c3ccc(C(=O)O)cc3C2=O)cc1 | > 48.8 µg/mL |

| Compound | solubility kinetic |
| --- | --- |
| Cl.c1cc(CNC2C3CC4CC(C3)CC2C4)ccn1 (centres undefined) | 33.7 µg/mL |
| CCOc1cc(/C=C2/NC(=O)N(CC(=O)OC)C2=O)ccc1O | 14.8 µg/mL (≈ 46.2 µM) |
| COc1ccc(NC(=O)c2cccnc2)cc1 | > 34.2 µg/mL |
| COc1ccc(C(=O)NCC(=O)OCCOc2ccc(Cl)cc2)cc1OC | 13.6 µg/mL (≈ 34.5 µM) |
| CCOC(=O)N1CCN(C(=O)CSc2nc3nc(C)cc(C)n3n2)CC1 | > 56.8 µg/mL |
| CC(C1CC1)N(Cc1ccccc1)C(=O)NC(=O)c1ccccc1 (centres undefined) | 46.1 µg/mL (≈ 143 µM) |
| COc1cccc(NCCC(=O)c2cccc([N+](=O)[O-])c2)c1 | 12.4 µg/mL (≈ 41.3 µM) |
| Cc1c[nH]c(=O)c([N+](=O)[O-])c1 | > 23.1 µg/mL |
| CN(Cc1ccccc1)C(=O)COC(=O)CN1C(=O)c2ccccc2C1=O | > 55 µg/mL |
| O=C(Nc1ccc2oc(=O)ccc2c1)c1ccc2ccccc2c1 | < 0.7 µg/mL |
| CC(=O)NC(c1ccc(C(C)C)cc1)c1ccc2cccnc2c1O (centres undefined) | 0.4 µg/mL (≈ 1.2 µM) |
| O=C(Nc1cc(Cl)cc(Cl)c1)C1CCCC1 | < 0.6 µg/mL |
| Cn1c(SCC(=O)NC2CCCCC2)nnc1-c1ccccn1 | > 49.7 µg/mL |
| Cc1cccc(N2CCN(CC(=O)NCc3ccccc3)CC2)c1C | 43.6 µg/mL (≈ 129 µM) |
| O=C(NCCNC(=O)c1cc(Cl)ccc1Cl)c1cnccn1 | > 50.9 µg/mL |
| CC(CN)(NS(=O)(=O)c1ccccc1)c1ccccc1 (centres undefined) | > 43.6 µg/mL |
| O=C1c2cccc([N+](=O)[O-])c2C(=O)N1C1CCCCC1 | 17.7 µg/mL (≈ 64.5 µM) |
| Cc1cc(Cc2cc(C)c(N)cc2C)c(C)cc1N | > 38.2 µg/mL |
| O=C(Nc1cccc([N+](=O)[O-])c1)c1ccccc1 | 9.6 µg/mL (≈ 39.6 µM) |
| COc1ccc(/C=C/C(=O)OCC(=O)N2CCCC2)c(OC)c1 | > 47.9 µg/mL |
| Cn1c(Cc2ccccc2)nnc1SCC(=O)NCCc1ccccc1 | > 55 µg/mL |
| Cc1ccc(NC(=O)CCNC(=O)c2ccc(Cl)cc2)nc1 | 16.8 µg/mL (≈ 52.9 µM) |
| CC(=O)c1ccc(NC(=S)NC2CCCC(C)C2C)cc1 (centres undefined) | 9.7 µg/mL (≈ 31.9 µM) |
| COCCSc1ccccc1C(=O)Nc1ccc(Cl)cc1 | 44.1 µg/mL (≈ 137 µM) |
